The series in a line: photoluminescence quantum yield (fraction); solvent given as SMILES.

Turning to `CC1=CC(C)=[N+]2C1=C(c1c3ccccc3c(C)c3ccccc13)c1c(C)cc(C)n1[B-]2(F)F`, the photoluminescence quantum yield reads like this: (in CC#N) 0.002; (in CCCCCC) 0.91; (in CCO) 0.005; (in CN(C)C=O) 0.003; (in Cc1ccccc1) 0.95; (in ClCCl) 0.011.

Take `CN(C)c1ccc2cc(C3=[O+][B-](F)(F)OC(c4ccccc4)=C3)ccc2c1`: the photoluminescence quantum yield is, setting by setting: (in C1CCOC1) 0.1; (in CC#N) 0.007; (in CC(C)=O) 0.01; (in CS(C)=O) 0.005; (in Cc1ccccc1) 0.97; (in ClC(Cl)Cl) 0.9. Besides, under “in ClCCl”, the photoluminescence quantum yield worked out at 0.13.

For the molecule `C[Si](C)(c1cccc2ccccc12)c1c2ccccc2cc2ccccc12`, the photoluminescence quantum yield was 0.72 (in C1CCCCC1) and 0.62 (in CC#N).

For the setting “in C1CCOC1”, `c1cc2c3c4c5c(cccc5cc3c1)-c1cccn1B4n1cccc1-2` yielded a photoluminescence quantum yield of 0.07.

Regarding `COc1cc2c(cc1-c1ccc(F)cc1)Cc1c3c(c4c(c1-2)-c1cc(OC)c(-c2ccc(F)cc2)cc1C4)C(=O)N(CCC(C)C)C3=O`, the photoluminescence quantum yield (in C1CCOC1) turned out to be 0.52.

On to `CCCCCCCCc1ccc(-c2c3cc(-c4cc(CCCCCCCC)c(-c5ccc(-c6sc(/C=C7\SC(SCC)=NC7=O)cc6CCCCCCCC)s5)s4)sc3c(-c3ccc(CCCCCCCC)s3)c3cc(-c4cc(CCCCCCCC)c(-c5ccc(-c6sc(/C=C7\SC(SCC)=NC7=O)cc6CCCCCCCC)s5)s4)sc23)s1`, for which the photoluminescence quantum yield runs as follows: (in C1CCOC1) 0.078; (in ClC(Cl)Cl) 0.037.

`COc1ccc2cc(/C=C/c3ccc([N+](=O)[O-])cc3)c(=O)oc2c1` had a photoluminescence quantum yield (in CC#N) of 0.24.

`CN(C)c1ccc(C2=C3C=C(c4ccc(C#N)cc4)S[C@]34c3ccccc3[C@H]2c2ccccc24)cc1`: where the note is “in ClCCl”, the photoluminescence quantum yield amounted to 0.76.

In the case of `CN(C)c1ccc2[c](c1)[Sn]([CH3])([CH3])[C]1=CC(=[N+](C)C)C=CC1=C2`, the photoluminescence quantum yield (in O) is 0.43.

Turning to `CCOC(=O)CSc1nc2c(c(C#N)c1C#N)CCCC2`, the photoluminescence quantum yield (in c1ccccc1) turned out to be 0.04.

In the case of `Cc1ccc(/C2=c3\cc/c(o3)=C(\c3ccc(C)cc3)c3ccc([nH]3)-c3ccc4n3[B-](F)(F)[N+]3=C(C=CC3=C4c3cccs3)c3ccc2[nH]3)cc1`, where the note is “in ClC(Cl)Cl”, the photoluminescence quantum yield turned out to be 0.09.

`CC(C)[Si](C#Cc1c2cc3ccccc3cc2c(C#C[Si](C(C)C)(C(C)C)C(C)C)c2nc3c(ccc4ccccc43)nc12)(C(C)C)C(C)C` gave a photoluminescence quantum yield (in CCCCCC) of 0.22.

With `COCCC1=Cc2nc1ccc1[nH]c(cc1CCOC)c1nc(c(OC(C)=O)cc3[nH]c2cc3CCOC)C(CCOC)=C1`, the photoluminescence quantum yield (in Cc1ccccc1) is 0.27.

`c1ccc(-c2nc3c(ccc4[nH]ccc43)o2)cc1` showed a photoluminescence quantum yield (in C1CCCCC1) of 0.6; a photoluminescence quantum yield (in C1COCCO1) of 0.78; a photoluminescence quantum yield (in CC#N) of 0.72; a photoluminescence quantum yield (in CO) of 0.55; a photoluminescence quantum yield (in Cc1ccccc1) of 0.69; a photoluminescence quantum yield (in O) of 0.54.

For the molecule `c1ccc2c(c1)c1ccccc1n2-c1ccc(-c2ccc(-n3c4ccccc4c4ccccc43)nc2-n2c3ccccc3c3ccccc32)nn1`, for the setting “in Cc1ccccc1”, the photoluminescence quantum yield is 0.35.

As for `CN(C)c1ccc(C(=O)Nc2ccccc2)cc1`, the photoluminescence quantum yield was found to be 0.0011 (in C1CCCCC1), 0.0061 (in C1CCOC1), 0.0107 (in CC#N) and 0.0036 (in CCOCC).

In turn, `COc1ccc(-c2cc3c(ccc4sc(/C=C/c5cccs5)cc43)s2)cc1` came in with a photoluminescence quantum yield (in ClCCl) of 0.28.

Take `CCN(CC)c1ccc2cc(/C(Cl)=C/C=C/C(=C(C#N)C#N)c3ccc4c(c3)c3ccccc3n4CC)c(=O)oc2c1`: the photoluminescence quantum yield (in CC(C)=O) worked out at 0.019; the photoluminescence quantum yield (in CCOC(C)=O) was found to be 0.052; the photoluminescence quantum yield (in CN(C)C=O) turned out to be 0.042; the photoluminescence quantum yield (in CS(C)=O) was determined as 0.018; the photoluminescence quantum yield (in Cc1ccccc1) amounted to 0.091; the photoluminescence quantum yield (in ClCCl) was 0.096.

As for `CCC1=C(C)C(=O)n2c1cc1c(c(C)c(C(=O)OC)n1C)c2=O`, the photoluminescence quantum yield runs as follows: (in C1CCCCC1) 0.03; (in CO) 0.66; (in CS(C)=O) 0.8; (in ClC(Cl)Cl) 0.71; (in c1ccccc1) 0.18.

For the setting “in ClCCl”, `C[Si]1(C)O[Si](C)(C)c2cc3nc4ccccc4c(-c4ccc(F)cc4)c3cc2[Si](C)(C)O1` registered a photoluminescence quantum yield of 0.3.

Under “in C1CCOC1”, `CCCCOc1cc2ccccc2c2c1oc1cc3ccccc3cc12` had a photoluminescence quantum yield of 0.63.

Regarding `CCOC(=O)c1[nH]c(C)c(/C=C/c2c(I)c(C)c3n2[B-](F)(F)[N+]2=C(C)C(I)=C(C)C2=C3c2cc(OC)cc(OC)c2)c1C`, the photoluminescence quantum yield by setting is: (in C1CCOC1) 0.22; (in CS(C)=O) 0.23; (in ClCCl) 0.21.

Turning to `F[B-]1(F)n2c(cc(Br)c2Br)C(c2ccccc2)=C2C=C(Br)C(Br)=[N+]21`, the photoluminescence quantum yield (in ClC(Cl)Cl) amounted to 0.98.

In the case of `N#Cc1nc2c(OCc3ccccc3)nc(N)nc2n1Cc1ccccc1`, the photoluminescence quantum yield reads like this: (in C1COCCO1) 0.73; (in CC#N) 0.65; (in CO) 0.14; (in ClCCl) 0.81.

Turning to `Cc1cccc(-c2[nH]c(=O)n3c2-c2ccccc2C3=O)c1O`, the photoluminescence quantum yield (in CC#N) was 0.52, the photoluminescence quantum yield (in CO) amounted to 0.15 and the photoluminescence quantum yield (in ClCCl) was found to be 0.6.

For the molecule `CCCCCCN1C(=O)c2cc(-c3ccc(-n4c5ccccc5c5ccccc54)cc3)c(-c3ccc(-n4c5ccccc5c5ccccc54)cc3)cc2C1=O`, the photoluminescence quantum yield was 0.78 (in ClC(Cl)Cl) and 0.7 (in c1ccc2c(c1)c1ccccc1n2-c1ccc(-c2ccc(-n3c4ccccc4c4ccccc43)cc2)cc1).

With `COc1ccccc1C1=[N+]2C(=C(c3ccccc3)c3c4c(c(-c5ccccc5OC)n3[B-]2(F)F)C2CCC4CC2)C2=C1C1CCC2CC1`, the photoluminescence quantum yield (in ClCCl) was 0.77.

Where the note is “in ClCCl”, `CCCCC(CC)Cn1c2cc(C#N)ccc2c2ccc(C#Cc3ccc4ccc5ccc(C#Cc6ccc7c8ccc(C#N)cc8n(CC(CC)CCCC)c7c6)c6ccc3c4c56)cc21` (stereo not given) yielded a photoluminescence quantum yield of 0.51.

For the molecule `CN(C)c1ccc(C#Cc2ccccc2)cc1`, the photoluminescence quantum yield is 0.35 (in C1CCCCC1); 0.244 (in C1CCOC1); 0.32 (in C1COCCO1); 0.314 (in CC1CCCO1); 0.102 (in CC#N); 0.103 (in CC(C)=O). Also, the photoluminescence quantum yield stood at 0.28 (in CC(C)CC(C)(C)C); 0.011 (in CC(C)O); 0.372 (in CCCCCCCCCCCCCCCC); 0.409 (in CCCCCCCCCCCCCCCCCl); 0.25 (in CCOC(C)=O); 0.11 (in CCOCC). Further, the photoluminescence quantum yield by setting is: (in CN(C)C=O) 0.3; (in CO) 0.01; (in CS(C)=O) 0.29; (in Cc1ccccc1) 0.39.

In turn, `Cc1ccc(C)c2nc3c(=O)[nH]c(=O)[nH]c3nc12` registered a photoluminescence quantum yield (in CC#N) of 0.08.

Consider `C(=C\c1nc2ccccc2o1)/c1ccccc1`, for which the photoluminescence quantum yield stood at 0.05 (in C1CCCCC1) and 0.006 (in CO).

Turning to `C(=C\c1ccc(/C=C/c2ccc(N(c3ccccc3)c3ccccc3)cc2)c2nsnc12)/c1ccc(N(c2ccccc2)c2ccccc2)cc1`, the photoluminescence quantum yield is 0.228 (in C1CCOC1); 0.275 (in CCOC(C)=O); 0.061 (in CN(C)C=O); 0.345 (in Cc1ccccc1); 0.148 (in ClC(Cl)Cl); 0.137 (in ClCCl).

Molecule `Fc1ccc(C#Cc2cc(C#Cc3ccc(F)cc3)c(C#Cc3ccc(F)cc3)c(C#Cc3ccc(F)cc3)c2C#Cc2ccc(F)cc2)cc1` yielded a photoluminescence quantum yield (in ClCCl) of 0.43.

For the molecule `CC1(C)CC(/C=C/c2ccc(-n3c4ccccc4c4ccccc43)cc2)=CC(=C(C#N)C#N)C1`, under “in CCO”, the photoluminescence quantum yield came to 0.005.

For `O=Cc1ccc2c(c1)c1ccccc1n2-c1cc2ccccc2c2ccccc12`, the photoluminescence quantum yield was 0.015 (in CC#N), 0.025 (in CCCCC), 0.022 (in Cc1ccccc1) and 0.03 (in ClCCl).

`N#CC(C#N)=Cc1ccc(-c2ccc(-c3nc4ccccc4s3)c(O)c2)s1`: the photoluminescence quantum yield reads like this: (in CCO) 0.0111; (in ClCCl) 0.0197; (in O) 0.01.

As to `C=C(C)C(CN1C(=O)c2cccc3c2c(cc2oc(C)nc23)C1=O)OO` (stereo not given), the photoluminescence quantum yield (in CCO) stood at 0.096.

`c1ccc(-c2nc(-c3ccc(-c4nc(-c5ccccc5)c(-c5ccccc5)[nH]4)cc3)[nH]c2-c2ccccc2)cc1`: the photoluminescence quantum yield is 0.75 (in CC#N) and 0.94 (in CS(C)=O).

Take `CC(C)(C)c1ccc(C(C)(C)C)c(N2C(=O)c3cccc4c(-c5ccc(-c6ccc(N(c7ccccc7)c7ccccc7)cc6)s5)ccc(c34)C2=O)c1`: for the setting “in Cc1ccccc1”, the photoluminescence quantum yield was found to be 0.56.

On to `O=C1/C(=C\c2ccc(N(c3ccccc3)c3ccccc3)cc2)S(=O)(=O)c2ccccc21`, for which the photoluminescence quantum yield came to 0.037 (in C1CCOC1); 0.324 (in C1COCCO1); 0.002 (in CC#N); 0.003 (in CC(C)=O); 0.036 (in CCOC(C)=O); 0.024 (in CN(C)C=O). This molecule returned a photoluminescence quantum yield (in CO) of 0.021; a photoluminescence quantum yield (in CS(C)=O) of 0.032; a photoluminescence quantum yield (in Cc1ccccc1) of 0.559; a photoluminescence quantum yield (in ClC(Cl)Cl) of 0.142; a photoluminescence quantum yield (in ClCCl) of 0.022.
